# Results: US20030220254A1, “Composition and method for preparation of an oral dual controlled release formulation of a protein and inhibitor” (TEXAS TECH UNIVERSITY SYSTEM, priority 2002, published 2003)
# Legend:
# Caco-2 cell homogenate = assay: Stability of sCT in Caco-2 cell homogenate; format: in vitro ADME, Human; settings: Caco-2 homogenate, sCT 50 μM
# Description: Human colon adenocarcinoma (Caco-2) cells were cultured, in an atmosphere of 5% CO2 at 37° C. in T-75 tissue culture flasks using DMEM supplemented with 10% FBS, 100 U/ml penicillin, 100 μg/ml streptomycin, 1.25 ml human Transferrin. The medium was changed every other day until the flasks reached 90% confluence (3-4 days). Caco-2 cells of less than 20 passages were used. Caco-2 homogenate was prepared according to the method of Augustijns et al. with slight modification. Briefly, the Caco-2 monolayer was washed three times with ice-cold PBS (pH 7.4). The cells were scraped off with a tissue culture scraper on ice and homogenized in 1 ml ice-cold PBS using a mechanical homogenizer. The mixture was centrifuged at 12,000 rpm for 10 min at 4° C. The resultant supernatant was used as Caco-2 homogenate. The protein content was determined using BCA assay. Tryspin and chymotrypsin assay was done for the homogenate as described below.
# (§1) The degradation of sCT was studied by incubating the sCT solution to a final concentration of 50 μM with 900 μl Caco-2 cell and goat intestinal homogenates. The samples were withdrawn at 0 and 60 min and were diluted immediately with cold TFA 1%. The samples containing intestinal homogenate were centrifuged at 5000 g for 10 min to remove precipitated proteins. The supernatant was injected into HPLC to determine the sCT content.
# trypsin = biological target: T1, trypsin (Bos taurus, UniProt P00760); assay: Stability of sCT in the presence of trypsin and protease inhibitors; format: biochemical; set-up: half-life: dose or concentration left out as unconfirmed
# T1 construct: gene PRSS1
# T1 sequence (P00760 24-246): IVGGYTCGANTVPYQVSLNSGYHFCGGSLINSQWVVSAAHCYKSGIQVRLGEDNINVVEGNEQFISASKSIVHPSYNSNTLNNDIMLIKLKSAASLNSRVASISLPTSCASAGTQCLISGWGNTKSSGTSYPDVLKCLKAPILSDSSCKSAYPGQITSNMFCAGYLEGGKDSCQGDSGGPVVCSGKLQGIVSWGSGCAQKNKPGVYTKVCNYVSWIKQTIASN
# Description: (§2) sCT solutions (50 μM) were incubated at 37° C. in 50 mM Tris buffer containing 0.1 mM calcium chloride (pH 8.0). Degradation profiles generated in the presence of 0.5 μM trypsin and 0.1 μM α-chymotrypsin served as controls. The concentrations were selected on the basis of a reported study (Schilling R. J. and Mitra A. K. 1991). DkOVM and TkOVM were evaluated at different enzyme-to-inhibitor ratios to evaluate their inhibition of sCT degradation. CkOVM and aprotinin were used at 1:1 enzyme-to-inhibitor ratio in order to compare the efficacy of various protease inhibitors used. sCT and enzyme solutions were incubated for 15 min at 37° C. before starting the experiments. Samples were taken after 0, 5, 15, 30 and 60 min and immediately diluted with cold 1% trifluoroacetic acid (TFA) to reduce the pH to 2.5. The samples were analysed at 4° C. by HPLC given below. Plots of sCT remaining against time were generated. 160 values (amount of sCT (%) remaining after 60 min) were used to compare the efficacy of the ovomucoids. Similar studies were performed with aprotinin. The study was also conducted by incubating 50 μM sCT solutions with 0.5 μM trypsin and 0.1 μM α-chymotrypsin added together and the efficacy of TkOVM was evaluated at various ratios.
# (§3) sCT was analyzed by means of our validated HPLC method (Shah R B, et al., 2003). Briefly, a computer controlled Varian Chromatography workstation consisting of the following components was used: Two Dynamax SD-200 pumps, an AI-200A autosampler fitted with a 100 μl injection loop, a Dynamax UV-1 detector and Star 5.3 chromatography software. Room temperature was maintained for the column and chromatographic separations were carried out on a C-18 Vydac 218MS54 column (5 μm, 4.6×250 mm) with a pore size of 300 Å. 50 μl of samples were injected into the column which were analyzed by the reversed phase HPLC method. The mobile phase consisted of 0.05% v/v TFA-Water (A) and 0.05% v/v TFA-Acetonitrile (B). The gradient conditions were 20-35% B for 10 min, 35-37% B from 10th to 20th min and 37-20% B from 20th to 25th min at a flow rate of 1 ml/min. […] Concentrations of sCT were quantified from integrated peak areas and calculated by interpolation from an according standard curve.
# [1] = test system: trypsin and α-chymotrypsin; assay: Stability of sCT with trypsin and α-chymotrypsin added together, with TkOVM; format: biochemical; settings: pH 8, no inhibitor, read-out: Half-life (min) of hydrolysis of sCT
# Description: as §2, with “Plots of sCT remaining against time were generated. 160 values (amount of sCT (%) remaining after 60 min) were used to compare the efficacy of the ovomucoids. Similar studies were performed with aprotinin.” left out
# sCT was analyzed by means of our validated HPLC method (Shah R B, et al., 2003). […] 50 μl of samples were injected into the column which were analyzed by the reversed phase HPLC method. […] Concentrations of sCT were quantified from integrated peak areas and calculated by interpolation from an according standard curve.
# in vitro = in vitro ADME; settings: goat, real gastrointestinal fluid or homogenate, pH 7.4
# Description: Goat intestinal homogenate was prepared using a reported method for preparation of intestinal homogenate with minor modifications (Yamamoto et al., 1990). Briefly, fresh goat intestinal tissues, obtained from a local slaughter house, were washed with phosphate buffered saline (PBS) pH 7.4 at 4° C. and stored at −80° C. Immediately before each experiment, specimens were thawed at room temperature and then were washed again with PBS at 4° C. 25 g of tissue was cut from the small intestinal region and was homogenized in 10 ml PBS at 4° C. by use of a mechanical homogenizer for 5 min. The homogenate was centrifuged at 5000 g in a refrigerated (4° C.) centrifuge for 10 min to remove cellular and nuclear debris. The resulting supernatant was assayed for protein content by BCA assay with bovine serum albumin as the standard. The supernatant was also assayed for trypsin and chymotrypsin content.
# as §1
# α-chymotrypsin = α-chymotrypsin (Bos taurus, UniProt P00766); assay: Stability of sCT in the presence of α-chymotrypsin and protease inhibitors; format: biochemical; set-up: half-life: dose or concentration left out as unconfirmed; settings: no inhibitor
# Description: as §2, §3
smiles,measurement,setting,value
"CC(C)C[C@H](NC(=O)[C@H](CCCCN)NC(=O)CNC(=O)[C@H](CC(C)C)NC(=O)[C@@H](NC(=O)[C@@H]1CSSC[C@H](N)C(=O)N[C@@H](CO)C(=O)N[C@@H](CC(N)=O)C(=O)N[C@@H](CC(C)C)C(=O)N[C@@H](CO)C(=O)N[C@@H]([C@@H](C)O)C(=O)N1)C(C)C)C(=O)N[C@@H](CO)C(=O)N[C@@H](CCC(N)=O)C(=O)N[C@@H](CCC(=O)O)C(=O)N[C@@H](CC(C)C)C(=O)N[C@@H](Cc1c[nH]cn1)C(=O)N[C@@H](CCCCN)C(=O)N[C@@H](CC(C)C)C(=O)N[C@@H](CCC(N)=O)C(=O)N[C@H](C(=O)N[C@@H](Cc1ccc(O)cc1)C(=O)N1CCC[C@H]1C(=O)N[C@@H](CCCNC(=N)N)C(=O)N[C@H](C(=O)N[C@@H](CC(N)=O)C(=O)N[C@H](C(=O)NCC(=O)N[C@@H](CO)C(=O)NCC(=O)N[C@H](C(=O)N1CCC[C@H]1C(N)=O)[C@@H](C)O)[C@@H](C)O)[C@@H](C)O)[C@@H](C)O [sCT, salmon calcitonin]",Amount (%) of sCT remaining at 60 min (I60),Caco-2 cell homogenate,81.46 ± 10.89%
same,Amount (%) of sCT remaining at 60 min (I60),"trypsin; control, sCT 50 μM without enzyme",103.76 ± 3.10%
same,half-life,"trypsin; pH 8, trypsin, no inhibitor, read-out: Half-life (min) of hydrolysis of sCT",1.51 min
same,Amount (%) of sCT remaining at 60 min (I60),"trypsin; trypsin 0.5 μM, no inhibitor",0.00 ± 0.00%
same,half-life at 50 μM,[1],0.77 min
same,"remaining at 1 h, 50 μM",in vitro,91.7 ± 17.6%
same,Amount (%) of sCT remaining at 60 min (I60),α-chymotrypsin; chymotrypsin 0.1 μM,16.18 ± 0.48%
same,half-life,"α-chymotrypsin; pH 8, α-chymotrypsin, read-out: Half-life (min) of hydrolysis of sCT",22.4 min
